Results on one compound are retold here after publication PMC3499629 (Journal of medicinal chemistry, 2012).

“Also recorded” adds a separate entry of the source.

The target of this assay is Gag' (GST-Gag) (Human immunodeficiency virus type 1 group M subtype B, UniProt P12493). The assay is classed as binding, HIV-1. Conditions: DSF validation.

With `C=C(C)[C@@H]1CC[C@]2(C(=O)O)CC[C@]3(C)[C@H](CC[C@@H]4[C@@]5(C)CC[C@H](OC(=O)CC(C)(C)C(=O)O)C(C)(C)[C@@H]5CC[C@]43C)[C@@H]12` [Bevirimat], the “thermal stability (Tm) of Gag' in complex” value is on record as “increased the thermal stability; also recorded: higher melting temperature”.
